Assay [1] has as its target T1, CCR2 (Homo sapiens, UniProt P41597).
T1 construct: host or cells: HEK293T, transient
T1 sequence (P41597 1-360 isoform P41597-2): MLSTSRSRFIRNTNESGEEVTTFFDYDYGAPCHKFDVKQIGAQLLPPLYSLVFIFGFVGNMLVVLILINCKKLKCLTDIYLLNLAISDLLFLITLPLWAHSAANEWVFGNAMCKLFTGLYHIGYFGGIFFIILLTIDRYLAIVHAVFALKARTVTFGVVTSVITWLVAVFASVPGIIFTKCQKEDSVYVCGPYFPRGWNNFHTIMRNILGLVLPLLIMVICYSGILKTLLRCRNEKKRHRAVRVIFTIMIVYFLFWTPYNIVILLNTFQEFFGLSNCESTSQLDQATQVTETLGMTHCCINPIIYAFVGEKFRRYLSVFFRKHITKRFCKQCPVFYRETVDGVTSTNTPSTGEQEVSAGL
Nature of the assay: NanoBRET competition binding assay for CCR2 based on 7, as previously reported. As to conditions: for inhibition at 20 µM: compound at 20 μM. The text has this:
With 6 (Figure 1), a first lead structure for intracellular CCR1 inhibition that features an approximately 20-fold CCR1 over CCR2 selectivity was previously discovered by Ortiz Zacarías et al.([33]) In order to discover new chemotypes for selective CCR1 over CCR2 inhibition, we aimed to apply our novel NanoBRET competition binding assay for CCR1 in combination with our recently published CCR2 competition binding assay based on 7.[47] In our first attempt, we screened a small in-house library enriched with intracellular GPCR ligands and structural analogues thereof. […] Additionally, we tested 23 for binding to the IABS of CCR9 and CXCR2 using our recently reported NanoBRET-based assay platform (Figure 6C).[44],[45] In the course of these studies, we detected no binding of 23 to CCR9 and CXCR2 up to a concentration of 20 μM. Since cell lineage-dependent effects have been observed for CCR1 antagonists,[59] we studied the CCR1 over CCR2 selectivity of 23 by using a previously reported radioligand binding assay with membrane preparations from osteosarcoma (U2OS) cells stably expressing human CCR1 or CCR2.[33] […] In agreement with these previous reports,[33] we observed a reduction in CCR1 over CCR2 selectivity when moving from membrane-based binding assays to cell-based functional assays. […] To investigate a potential signaling bias of 23, we tested the compound by means of a NanoBiT miniGi recruitment assay.[60] […] Thus, this indicated no strong signaling bias of 23 (Figures S9E and S10C). To elucidate the SAR of this new scaffold for selective CCR1 over CCR2 inhibition, we synthesized several analogues of 23 (24–40) and tested them by means of our NanoBRET competition binding assays (Schemes S2 and S3, Table 1, Figures 6F and S11). First, we aimed to examine the impact of the stereochemistry of 23 on CCR1 affinity. As for the structurally related pyrrolone 4, large differences in CCR2 affinity between the eutomer 4-[R] and the distomer 4-[S] were described.[61] […] Furthermore, we identified the 4-hydroxyphenethyl group at position 1 of the pyrrolone scaffold as highly important for CCR1 affinity and selectivity. Its presence seems to block CCR2 binding, also when combined with the structural features of the high-affinity CCR2 ligand 5, as exemplified by 24. Especially the 4-hydroxy group at this moiety is essential for CCR1 binding (see 25 and 26). […] In position 5 of the pyrrolone, several aromatic and aliphatic substituents were tolerated (see 31–35).
A general note: In BRET a luciferase serves as donor, and the signal depends on an acceptor being close.

In assay [2] the target is T2, human CCR2b (Homo sapiens, UniProt P41597).
T2 sequence (P41597 1-360 isoform P41597-2): T1 sequence (P41597 1-360 isoform P41597-2)
Nature of the assay: Membrane-based radioligand binding assay with [3H]-CCR2-RA-[R], U2OS membranes. As to conditions: [3H]CCR2-RA-[R] 6 nM, 25 °C. How it is done: Membrane-based radioligand binding assays: Assays were performed according to the published protocol.13 Radioligand binding assays were performed in a 100 µ L reaction volume containing varying concentrations (final concentrations: 0.001 – 10 µM) of compounds 23 and 5, 6 nM [3H]-CCR2-RA-[R] (specific activity 60.6 Ci mmol-1, custom labeled by Vitrax in Placentia, CA, USA), and 15 µg membrane protein, all diluted in assay buffer (50mM Tris-HCl, 5 mM MgCl2, 0.1% CHAPS, at pH 7.4). Membranes were obtained from Tango™ CCR1-bla or Tango™ CCR2-bla osteosarcoma (U2OS) cells stably expressing the human CCR1 ([…]) or human CCR2b (U2OS-CCR2) cells (Invitrogen, Carlsbad, CA, USA). Total binding was determined in the absence of competing ligand, while non -specific binding was determined in the presence of 10 µM CCR2-RA-[R]. After membrane addition, reaction mixtures were incubated for 2 h at 25 °C while shaking. After 2 h, reactions were terminated by harvesting through a 96 -well GF/C filter plate using a PerkinElmer Filtermate harvester (PerkinElmer, Groningen, NL) and ice -cold wash buffer (50mM Tris-HCl, 5 mM MgCl2, 0.1% CHAPS, at pH 7.4). Afterwards, filter plate was dried, and radioactivity was measured in a P-E-2450 Microbeta2 scintillation plate counter (PerkinElmer, Groningen, NL) after addition of 25 µL of Microscint scintillation cocktail (PerkinElmer, Groningen, NL). […]
Technologies) for 20 min. […]
Finally, the top 5% of the identified hits were subsequently docked to a homology model of CCR1 (vide infra). After visual examination of the obtained binding modes 24 hit compounds were identified for further investigation .
Molecular docking: For the docking studies in the course of our virtual screening campaign, the CCR1 protein was […]
27, 28 CCR1 structure was optimized using the Quickprep and structure preparation wizard in MOE 24 using CHARMM27 forcefield. The protein was saved in mol2 format and loaded in GOLD.25, 26 The amino acids defining the IABS were listed in a text file to define the docking cavity. 50 GA runs were performed for docking CCR2-RA-[R] (4-[R]) and SN_12 (43), with the generated solutions clustered based on their RMSD with the threshold set to 0.75 Å using the complete linkage method. Docking runs were performed using ChemScore. Flexibility of amino acids Lys63ICL1, Arg1313.50, Leu2406.36 and Arg3078.49 was taken in consideration in the docking runs, with conformational sampling of their side chains being done by the rotamer libraries implemented in GOLD.25, 26 For the docking studies with our ligand-linker conjugates (Figure S1), molecular ligand structures were geometry optimized as neutral molecules by means of Avogadro (Version 1.2.0)29 using the Universal Force Field (UFF) and the Steepest Decent Algorithm until convergence (ΔE = 0).
CCR113 was used for docking. The compounds were docked by means of AutoDock Vina 1.1.2.30, 31 An exhaustiveness value of 8 and a search space of 22 x 22 x 22 Å³ was applied around the unliganded intracellular allosteric binding site of CCR1. Twenty docking poses were generated for each ligand and inspected manually and according to the docking score.

[3] abbreviates: read-out: Ki, CCR2 (radioligand).

Like-named read-outs stand apart in the source and are kept apart here.

As for `O=C(C1=C(O)C(=O)N(CCc2ccc(O)cc2)C1c1ccc(F)cc1)c1ccccc1` (racemic) [compound 23], the inhibition at 20 µM is -3% in assay [1] (read-out: % inh. of tracer binding, CCR2) and < 10% in assay [1] (read-out: CCR2 inhibition class (n.i.)). Also, the Ki in assay [2] (setting [3]) worked out at 3820 nM.
Take `CC(=O)C1=C(O)C(=O)N(c2ccc(Br)cc2F)C1C1CCCCC1` (stereo not drawn) [compound 5, reference compound]: the Ki in assay [1] (NanoBRET competition, tracer 7) is 17.9 nM; in assay [2] (setting [3]) it was 9 nM; in assay [2] (read-out: pKi, CCR2 (radioligand) (converted)), 7.94 nM.

The values are drawn from publication PMC11249626, “Fluorophore-Labeled Pyrrolones Targeting the Intracellular Allosteric Binding Site of the Chemokine Receptor CCR1” (ACS Pharmacology & Translational Science, 2024).
